{"source": "patent US11884653B2", "about": "“Arylnaphthalene compounds as vacuolar-ATPase inhibitors and the use thereof” (Purdue Research Foundation, priority 2018, dated 2024)", "biological_target": "V-ATPase", "test": "acridine orange quenching (proton-pumping function of V-ATPase) in isolated HEK293 vesicles", "type": "biochemical", "settings": "read-out: AO Quenching IC50", "method": "To assess if ability of diphyllin and derivatives to inhibit endosomal acidification is due to the expected ability of diphyllin to inhibit V-ATPase activity, compounds were assayed for inhibition of both the proton-pumping and ATPase functions of the isolated V-ATPase enzyme. V-ATPase containing vesicles were isolated from HEK293 cells following methods similar to that found in […]. (Zoncu, R. et al., Science 2011, 334, 678-683). To determine the effect of compounds upon the proton pumping function of V-ATPase, isolated vesicles were incubated with acridine orange and the compound or vehicle for 1 h prior to the addition of ATP which initiated pump activity. The quenching of the 530 nm emission of acridine orange was measured over 1h before addition of nigericin to relax the proton gradient within vesicles. IC50 values against the proton-pumping function of V-ATPase could be assessed by quantifying the change in Acridine Orange (AO) fluorescence immediately before and after the addition of nigericin.\nHEK293 vesicle isolation-Cells were grown to confluency in a 175 cm^2 flask (Corning) before growth media was removed and replaced with serum-free DMEM for 2 h. 1 μM FCCP in DMEM was then added for 15 min before cells were scrapped form the plate and pelleted at 1000×g for 5 min. […]"}
{"smiles": "COc1cc2c(OCCCN3CCN(CCO)CC3)c3c(c(-c4ccc5c(c4)OCO5)c2cc1OC)C(=O)OC3", "note": "[Compound 2i, 9-(benzo[d][1,3]dioxol-5-yl)-4-(3-(4-(2-hydroxyethyl)piperazin-1-yl)propoxy)-6,7-dimethoxynaphtho[2,3-c]furan-1(3H)-one]", "values": [{"measurement": "IC50", "value": "61 ± 2.84", "unit": "nM"}]}
